Data on 17 molecules can be found in patent US20260365653A1, “IRREVERSIBLE MUTEGFR INHIBITORS” (Bayer Aktiengesellschaft, priority 2022, published 2026).

Assay [1] deals with T1, mutEGFR (D770_N771insSVD) (Homo sapiens, UniProt P00533, DUP768-770).
T1 construct: GST-EGFR #3 (SVD between D770 and N771); made in house; host or cells: Sf9 insect cells (baculovirus)
The experiment in a line: Exon20-Mutant-EGFR (D770_N771insSVD) kinase assay (TR-FRET). Format: biochemical. (In TR-FRET formats the signal depends on donor and acceptor labels being close together.)

The target of assay [2] is T2, mutEGFR (D770_N771insNPG, T790) (Homo sapiens, UniProt P00533, INS770NPG/T790M).
T2 construct: exact insNPG construct not described; in-house EGFR proteins were N-terminal GST fusions from baculovirus/insect cells (borders R669-A1210 given only for WT, insSVD, insASV)
The experiment in a line: mutEGFR (D770_N771insNPG, T790) kinase assay. In kind it is biochemical. From the text: The different EGFR proteins used in the biochemical kinase activity inhibition assays were generated inhouse by expression in insect cells using Baculo Virus system and subsequent purification as described in the following paragraphs.
The cDNAs encoding the various protein sequences from human EGFR human (P00533) were optimized for expression in eukaryotic cells and synthesized by the GeneArt Technology at Life Technologies.

Another assay relates to BA/F3 (insSVD) cells. In words: Ba/F3-EGFR-insSVD cell survival assay (Cell Titer-Glo). In kind it is cell-based. The conditions noted are these: Mus musculus, BaF3, 48 h. As for the experimental part:
Cellular Data Description (WT, insSVD, insSVD T790M) 293T cells from ATCC were transfected with pBABEpuro expression constructs for WT EGFR or EGFR-insSVD, or EGFR-insSVD T790M, and pCL-Eco packaging vector using Fugene-6 transfection reagent from Promega. Plates were incubated at 37° C. for 48 h. Retrovirus was harvested by filtering the media supernatant through a 0.45 μm filter.
Ba/F3 cells purchased from DSMZ were grown in RPMI+10% FBS+10 ng/ml IL-3 and infected with filtered retroviral supernatant at a 1:2 dilution. Polybrene was added to a concentration of 8 μg/mL, plates were spun for 90 min, and incubated for 16 h at 37° C. 2 μg/mL puromycin was added to the infected cells 24 h after infection and cells were continually grown in the presence of puromycin and 10 ng/ml IL-3. Following stably expressing Ba/F3 cell lines were generated: Ba/F3-EGFR-WT, Ba/F3-EGFR-insSVD, Ba/F3-EGFR-insSVD T790M, (Ba/F3-vector-control).
For cell survival assays, Ba/F3 cells were grown to a density of 1-2 million cells per mL, spun down and resuspended in media without IL-3, and replated at a concentration of 200,000-500,000 cells per mL. The cells ectopically expressing WT EGFR, EGFR-insSVD, or EGFR-insSVD T790M were plated with 10 ng/ml Millipore Culture grade EGF. The cells ectopically expressing pBABEpuro empty vector were plated with 10 ng/mL IL-3.
2 days later, cells were plated in 50 µL in a 384 well plate at a concentration of 4000 cells per well for cells assayed in the absence of IL-3 and 2000 cells per well for cells assayed in the presence of IL-3. 100 nL of compound was added to each well using a 100 nL pin head, and plates were incubated at 37° C. for 48 h.
Cell viability was measured by adding 20 μL of Cell Titer-Glo Luminescent Cell Viability Reagent diluted 1:3 in PBS. Plates were sealed with Perkin Elmer Top-Seal, inverted several times to mix, and immediately centrifuged at 1000 rpm for 2 min. Plates were incubated in low light conditions for 8-10 min and luminescence was measured.
In general terms: Cellular ATP, detected with luciferase, serves as a proxy for viable cell number.

The mark [3] stands for this setting: mutEGFR (D770_N771insSVD) kinase assay IC50, Table 2a, D770_N771insSVD, 2 mM ATP.
[4] abbreviates: mutEGFR (D770_N771insSVD) kinase assay IC50, Table 2b (from US Priority Patent Application), mutEGFR D770_N771insSVD.
[5] abbreviates: Table 2b (from US Priority Patent Application), mutEGFR D770_N771insNPG.
[6] abbreviates: Table 3a, cell survival, Cell Titer-Glo, with 10 ng/ml EGF, without IL-3.

T2 sequence (P00533 with tags, fused parts or gaps INS770NPG/T790M limits assumed): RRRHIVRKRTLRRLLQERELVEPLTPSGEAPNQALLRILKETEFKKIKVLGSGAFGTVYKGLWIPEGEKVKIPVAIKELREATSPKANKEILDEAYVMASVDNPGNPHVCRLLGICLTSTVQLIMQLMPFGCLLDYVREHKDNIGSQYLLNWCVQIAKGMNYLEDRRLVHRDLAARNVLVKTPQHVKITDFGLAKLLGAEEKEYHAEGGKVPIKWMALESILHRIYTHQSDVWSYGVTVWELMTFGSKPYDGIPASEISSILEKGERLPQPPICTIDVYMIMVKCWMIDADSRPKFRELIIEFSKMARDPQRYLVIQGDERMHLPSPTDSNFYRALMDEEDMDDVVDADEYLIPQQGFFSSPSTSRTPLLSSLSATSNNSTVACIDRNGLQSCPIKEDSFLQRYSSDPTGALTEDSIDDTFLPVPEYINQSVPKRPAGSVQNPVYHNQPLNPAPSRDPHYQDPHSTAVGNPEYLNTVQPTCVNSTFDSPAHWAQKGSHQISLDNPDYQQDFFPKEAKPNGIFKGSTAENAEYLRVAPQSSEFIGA
T1 sequence (P00533 with tags, fused parts or gaps DUP768-770): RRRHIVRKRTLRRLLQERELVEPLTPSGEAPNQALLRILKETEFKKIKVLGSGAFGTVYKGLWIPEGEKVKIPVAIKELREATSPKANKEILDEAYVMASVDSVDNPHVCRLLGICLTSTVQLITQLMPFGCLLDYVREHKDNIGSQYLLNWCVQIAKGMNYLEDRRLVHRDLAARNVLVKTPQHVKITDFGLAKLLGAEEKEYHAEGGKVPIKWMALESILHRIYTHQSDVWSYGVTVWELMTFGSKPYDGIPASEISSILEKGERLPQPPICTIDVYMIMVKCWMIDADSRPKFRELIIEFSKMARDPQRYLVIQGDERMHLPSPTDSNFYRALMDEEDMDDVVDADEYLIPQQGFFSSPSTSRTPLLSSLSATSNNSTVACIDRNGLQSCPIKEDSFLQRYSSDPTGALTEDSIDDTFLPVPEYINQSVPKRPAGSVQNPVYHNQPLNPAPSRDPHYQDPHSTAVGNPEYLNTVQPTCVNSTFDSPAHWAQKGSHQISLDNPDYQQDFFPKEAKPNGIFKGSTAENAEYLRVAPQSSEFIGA

In general, IC50 refers to the concentration at which inhibition is half-maximal. With `C=CC(=O)N1CCn2nc(-c3ccc(F)cc3)c(-c3ccncc3OC)c2C1` [Example 12, 1-[2-(4-fluorophenyl)-3-(3-methoxypyridin-4-yl)-6,7-dihydropyrazolo[1,5-a]pyrazin-5(4H)-yl]prop-2-en-1-one], the IC50 turned out to be 37.1 nM in assay [1] (setting [3]); 37.1 nM in assay [1] (setting [4]); 84.2 nM in assay [2] (Table 2a, D770_N771insNPG); 84.2 nM in assay [2] (setting [5]); 359 nM in the assay on BA/F3 (insSVD) cells (setting [6]); 359 nM in the assay on BA/F3 (insSVD) cells (Table 3b, Ba/F3 EGFR-insSVD).
On to `CC(C)(C)OC(=O)N1CCCC1C#CC(=O)N1CCn2nc(-c3ccc(F)cc3)c(-c3ccncc3)c2C1` (racemic) [Example 87, tert-butyl(2RS)-2-(3-[2-(4-fluorophenyl)-3-(pyridin-4-yl)-6,7-dihydropyrazolo[1,5-a]pyrazin-5(4H)-yl]-3-oxoprop-1-yn-1-yl) pyrrolidine-1-carboxylate], for which the concentration for half-maximal inhibition (IC50) in assay [1] (setting [3]) worked out at 53.1 nM; in assay [2] (Table 2a, D770_N771insNPG) it was 82.5 nM; in the assay on BA/F3 (insSVD) cells (setting [6]), 1060 nM.
Regarding `C=CC(=O)N1CCn2nc(-c3ccc(F)cc3)c(-c3ccnc4[nH]cc(C)c34)c2C1` [Example 173, 1-[2-(4-fluorophenyl)-3-(3-methyl-1H-pyrrolo[2,3-b]pyridin-4-yl)-6,7-dihydropyrazolo[1,5-a]pyrazin-5(4H)-yl]prop-2-en-1-one], the IC50 in assay [1] (setting [3]) was 157 nM; in assay [2] (Table 2a, D770_N771insNPG), 25.5 nM; in the assay on BA/F3 (insSVD) cells (setting [6]), 62.8 nM.
As to `COc1ccc(-c2nn3c(c2-c2ccncc2)CN(C(=O)/C=C/CN(C)C)CC3)c(F)c1` [Example 160, (2E)-4-(dimethylamino)-1-[2-(2-fluoro-4-methoxyphenyl)-3-(pyridin-4-yl)-6,7-dihydropyrazolo[1,5-a]pyrazin-5(4H)-yl]but-2-en-1-one], the IC50 in assay [1] (setting [3]) turned out to be 1.48 nM; in assay [2] (Table 2a, D770_N771insNPG), 6.58 nM; in the assay on BA/F3 (insSVD) cells (setting [6]), 973 nM.
The like results for `C[C@H]1Cn2nc(-c3cccc(C#N)c3)c(-c3ccncc3)c2CN1C(=O)/C=C/CN(C)C` [Example 101, 3-[(6S)-5-[(2E)-4-(dimethylamino)but-2-enoyl]-6-methyl-3-(pyridin-4-yl)-4,5,6,7-tetrahydropyrazolo[1,5-a]pyrazin-2-yl]benzonitrile] were, in that order, 16.8 nM, 3.5 nM and 44.6 nM.
Turning to `C=CC(=O)N1CCn2nc(-c3ccc4cc[nH]c4c3)c(-c3ccncc3)c2C1C` (racemic) [Example 243, 1-[(RS)-2-(1H-indol-6-yl)-4-methyl-3-(pyridin-4-yl)-6,7-dihydropyrazolo[1,5-a]pyrazin-5(4H)-yl]prop-2-en-1-one], the IC50 in assay [1] (setting [3]) came out at 0.395 nM; in assay [2] (Table 2a, D770_N771insNPG), 0.656 nM; with BA/F3 (insSVD) cells (setting [6]) it was 97.8 nM.
The like results for `O=C(/C=C/CN1CCOCC1)N1CCn2nc(-c3ccc(Cl)cc3)c(-c3ccncc3)c2C1` [Example 165, (E)-1-(2-(4-chlorophenyl)-3-(pyridin-4-yl)-6,7-dihydropyrazolo[1,5-a]pyrazin-5(4H)-yl)-4-morpholinobut-2-en-1-one] were, in that order, 0.631 nM, 2.43 nM and 107 nM.
For `O=C(/C=C/CN1CCCCC1)N1CCn2nc(-c3ccc(Cl)cc3)c(-c3ccncc3)c2C1` [Example 163, (2E)-1-[2-(4-chlorophenyl)-3-(pyridin-4-yl)-6,7-dihydropyrazolo[1,5-a]pyrazin-5(4H)-yl]-4-(piperidin-1-yl) but-2-en-1-one] the same measures were 0.16 nM, 0.619 nM and 47.4 nM.
The like results for `Cc1c[nH]c2nccc(-c3c(-c4ccc(C(F)(F)F)cc4)nn4c3CN(C(=O)/C=C/CN(C)C)CC4)c12` [Example 58, (2E)-4-(dimethylamino)-1-[3-(3-methyl-1H-pyrrolo[2,3-b]pyridin-4-yl)-2-[4-(trifluoromethyl)phenyl]-6,7-dihydropyrazolo[1,5-a]pyrazin-5(4H)-yl]but-2-en-1-one] were, in that order, 446 nM, 1300 nM and 138 nM.
With `C=CC(=O)N1CCn2nc(-c3ccc(C(F)(F)F)cc3F)c(-c3ccnc4[nH]cc(C)c34)c2C1` [Example 174, 1-(2-(2-fluoro-4-(trifluoromethyl)phenyl)-3-(3-methyl-1H-pyrrolo[2,3-b]pyridin-4-yl)-6,7-dihydropyrazolo[1,5-a]pyrazin-5(4H)-yl) prop-2-en-1-one], the IC50 came out at 176 nM in assay [1] (setting [3]); 2130 nM in assay [2] (Table 2a, D770_N771insNPG); 160 nM in the assay with BA/F3 (insSVD) cells (setting [6]).
For `O=C(/C=C/CN1CCC1)N1CCn2nc(-c3ccc(Cl)cc3F)c(-c3ccncc3)c2C1` [Example 77, (2E)-4-(azetidin-1-yl)-1-[2-(4-chloro-2-fluorophenyl)-3-(pyridin-4-yl)-6,7-dihydropyrazolo[1,5-a]pyrazin-5(4H)-yl]but-2-en-1-one], the IC50 is 0.347 nM in assay [1] (setting [3]); 1.6 nM in assay [2] (Table 2a, D770_N771insNPG); 25.9 nM with BA/F3 (insSVD) cells (setting [6]).
The like results for `C=CC(=O)N1CCn2nc(-c3ccc(OC(F)F)cc3)c(-c3ccncc3)c2C1` [Example 128, 1-{2-[4-(difluoromethoxy)phenyl]-3-(pyridin-4-yl)-6,7-dihydropyrazolo[1,5-a]pyrazin-5(4H)-yl}prop-2-en-1-one] were, in that order, 3.62 nM, 13.8 nM and 139 nM.
For `CN(C)C/C=C/C(=O)N1Cc2c(-c3ccncc3)c(-c3ccc(Cl)cc3)nn2C(C)(C)C1` [Example 215, (2E)-1-[2-(4-chlorophenyl)-7,7-dimethyl-3-(pyridin-4-yl)-6,7-dihydropyrazolo[1,5-a]pyrazin-5(4H)-yl]-4-(dimethylamino)but-2-en-1-one] the same measures were 0.513 nM, 1.2 nM and 41.7 nM.
On to `C=CC(=O)N1Cc2c(-c3ccncc3)c(-c3ccc(Cl)c(C)c3)nn2CC1(C)C` [Example 212, 1-[2-(4-chloro-3-methylphenyl)-6,6-dimethyl-3-(pyridin-4-yl)-6,7-dihydropyrazolo[1,5-a]pyrazin-5(4H)-yl]prop-2-en-1-one], for which the IC50 in assay [1] (setting [3]) was determined as 5.61 nM; in assay [2] (Table 2a, D770_N771insNPG) it was 10.1 nM; in the assay on BA/F3 (insSVD) cells (setting [6]), 296 nM.
Take `CN(C)C/C=C/C(=O)N1CCn2nc(-c3ccc4sccc4c3)c(-c3ccncc3)c2C1` [Example 196, (2E)-1-[2-(1-benzothiophen-5-yl)-3-(pyridin-4-yl)-6,7-dihydropyrazolo[1,5-a]pyrazin-5(4H)-yl]-4-(dimethylamino)but-2-en-1-one]: the concentration for half-maximal inhibition (IC50) in assay [1] (setting [3]) worked out at 0.183 nM; in assay [2] (Table 2a, D770_N771insNPG), 0.421 nM; in the assay on BA/F3 (insSVD) cells (setting [6]) it was 40.4 nM.
As to `O=C(Nc1cc(-c2c(-c3ccc(F)cc3)nn3c2CN(C(=O)C2CO2)CC3)ccn1)C1CC1` (stereo not drawn) [Example 9, N-{4-[2-(4-fluorophenyl)-5-(oxirane-2-carbonyl)-4,5,6,7-tetrahydropyrazolo[1,5-a]pyrazin-3-yl]pyridin-2-yl}cyclopropanecarboxamide], the concentration for half-maximal inhibition (IC50) was determined as 64.5 nM in assay [1] (setting [3]); 64.5 nM in assay [1] (setting [4]); 104 nM in assay [2] (Table 2a, D770_N771insNPG); 104 nM in assay [2] (setting [5]); 2040 nM in the assay on BA/F3 (insSVD) cells (setting [6]); 2040 nM in the assay with BA/F3 (insSVD) cells (Table 3b, Ba/F3 EGFR-insSVD).
For the molecule `C#CC(=O)N1CCn2nc(-c3ccc(F)cc3)c(-c3ccncc3)c2C1` [Example 13, 1-[2-(4-fluorophenyl)-3-(pyridin-4-yl)-6,7-dihydropyrazolo[1,5-a]pyrazin-5(4H)-yl]prop-2-yn-1-one], the half-maximal inhibitory concentration (IC50) is 0.807 nM in assay [1] (setting [3]); 0.807 nM in assay [1] (setting [4]); 1.26 nM in assay [2] (Table 2a, D770_N771insNPG); 1.26 nM in assay [2] (setting [5]); 909 nM with BA/F3 (insSVD) cells (setting [6]); 909 nM in the assay with BA/F3 (insSVD) cells (Table 3b, Ba/F3 EGFR-insSVD).
